In ChEMBL document CHEMBL1122946, “Folate antagonists. 21. Synthesis and antimalarial properties of 2,4-diamino-6-(benzylamino)pyrido[3,2-d]pyrimidines” (1985):

Experiments:
Mus musculus [1] = test: Mean survival time against trophozoite induced Plasmodium berghei in mice minus control was evaluated at a dose 160 mg/kg; 5 survived occurred on days 2-5 after injection; format: functional, organism-based; design: dose 160 mg/kg
Mus musculus [2] = test: Mean survival time against trophozoite induced Plasmodium berghei in mice minus control was evaluated at a dose 20 mg/kg.; format: functional
Mus musculus [3] = test: Mean survival time against trophozoite induced Plasmodium berghei in mice minus control was evaluated at a dose 640 mg/kg; 5 toxic death occurred on days 2-5 after injection; format: functional, organism-based; design: dose 640 mg/kg
Mus musculus [4] = test: Mean survival time against trophozoite induced Plasmodium berghei in mice minus control was evaluated at a dose 80 mg/kg; 2 survived occurred on days 2-5 after injection.; format: functional
Mus musculus [5] = test: Mean survival time against trophozoite induced Plasmodium berghei in mice minus control was evaluated at a dose 80 mg/kg; 2 survived occurred on days 2-5 after injection; format: functional, organism-based; design: dose 80 mg/kg
Mus musculus [6] = test: Mean survival time against trophozoite induced Plasmodium berghei in mice minus control was evaluated at a dose 10 mg/kg.; format: functional
Mus musculus [7] = test: Mean survival time against trophozoite induced Plasmodium berghei in mice minus control was evaluated at a dose 320 mg/kg; 2 toxic death and 3 survived occurred on days 2-5 after injection; format: functional, organism-based; design: dose 320 mg/kg
Mus musculus [8] = test: Mean survival time against trophozoite induced Plasmodium berghei in mice minus control was evaluated at a dose 40 mg/kg; 1 survived occurred on days 2-5 after injection; format: functional
Mus musculus [9] = test: Mean survival time against trophozoite induced Plasmodium berghei in mice minus control was evaluated at a dose 160 mg/kg; 10 survived out of 10 animals at 60 days postinjection.; format: functional, organism-based; design: dose 160 mg/kg
Mus musculus [10] = test: Mean survival time against trophozoite induced Plasmodium berghei in mice minus control was evaluated at a dose 640 mg/kg; 5 survived out of 5 animals at 60 days postinjection.; format: functional, organism-based; design: dose 640 mg/kg
Mus musculus [11] = test: Mean survival time against trophozoite induced Plasmodium berghei in mice minus control was evaluated at a dose 40 mg/kg; 15 survived out of 15 animals at 60 days postinjection.; format: functional, organism-based; design: dose 40 mg/kg
Mus musculus [12] = test: Mean survival time against trophozoite induced Plasmodium berghei in mice minus control was evaluated at a dose 320 mg/kg; 10 survived out of 10 animals at 60 days postinjection.; format: functional, organism-based; design: dose 320 mg/kg
Mus musculus [13] = test: Mean survival time against trophozoite induced Plasmodium berghei in mice minus control was evaluated at a dose 80 mg/kg; 10 survived out of 10 animals at 60 days postinjection.; format: functional, organism-based; design: dose 80 mg/kg
Mus musculus [14] = test: Mean survival time against trophozoite induced Plasmodium berghei in mice minus control was evaluated at a dose 20 mg/kg; 8 survived out of 15 animals at 60 days postinjection.; format: functional, organism-based; design: dose 20 mg/kg
Mus musculus [15] = test: Mean survival time against trophozoite induced Plasmodium berghei in mice minus control was evaluated at a dose 160 mg/kg.; format: functional
Mus musculus [16] = test: Mean survival time against trophozoite induced Plasmodium berghei in mice minus control was evaluated at a dose 320 mg/kg.; format: functional
Mus musculus [17] = test: Mean survival time against trophozoite induced Plasmodium berghei in mice minus control was evaluated at a dose 640 mg/kg; 7 survived out of 10 animals at 60 days postinjection.; format: functional, organism-based; design: dose 640 mg/kg
Mus musculus [18] = test: Mean survival time against trophozoite induced Plasmodium berghei in mice minus control was evaluated at a dose 80 mg/kg.; format: functional
Mus musculus [19] = test: Mean survival time against trophozoite induced Plasmodium berghei in mice minus control was evaluated at a dose 40 mg/kg.; format: functional
Mus musculus [20] = test: Mean survival time against trophozoite induced Plasmodium berghei in mice minus control was evaluated at a dose 40 mg/kg; 5 survived out of 5 animals at 60 days postinjection.; format: functional, organism-based; design: dose 40 mg/kg
Mus musculus [21] = test: Mean survival time against trophozoite induced Plasmodium berghei in mice minus control was evaluated at a dose 160 mg/kg; 5 survived out of 5 animals at 60 days postinjection.; format: functional, organism-based; design: dose 160 mg/kg
Mus musculus [22] = test: Mean survival time against trophozoite induced Plasmodium berghei in mice minus control was evaluated at a dose 80 mg/kg; 5 survived out of 5 animals at 60 days postinjection.; format: functional, organism-based; design: dose 80 mg/kg
Mus musculus [23] = test: Mean survival time against trophozoite induced Plasmodium berghei in mice minus control was evaluated at a dose 320 mg/kg; 5 survived out of 5 animals at 60 days postinjection.; format: functional, organism-based; design: dose 320 mg/kg
Mus musculus [24] = test: Mean survival time against trophozoite induced Plasmodium berghei in mice minus control was evaluated at a dose 20 mg/kg; 3 survived out of 5 animals at 60 days postinjection; format: functional, organism-based; design: dose 20 mg/kg
Mus musculus [25] = test: Mean survival time against trophozoite induced Plasmodium berghei in mice minus control was evaluated at a dose 5 mg/kg.; format: functional
Mus musculus [26] = test: Mean survival time against trophozoite induced Plasmodium berghei in mice minus control was evaluated at a dose 1.25 mg/kg.; format: functional
Mus musculus [27] = test: Mean survival time against trophozoite induced Plasmodium berghei in mice minus control was evaluated at a dose 2.5 mg/kg.; format: functional
Mus musculus [28] = test: Mean survival time against trophozoite induced Plasmodium berghei in mice minus control was evaluated at a dose 40 mg/kg; 10 survived out of 10 animals at 60 days postinjection.; format: functional, organism-based; design: dose 40 mg/kg
Mus musculus [29] = test: Mean survival time against trophozoite induced Plasmodium berghei in mice minus control was evaluated at a dose 20 mg/kg; 8 survived out of 10 animals at 60 days postinjection.; format: functional, organism-based; design: dose 20 mg/kg
Mus musculus [30] = test: Mean survival time against trophozoite induced Plasmodium berghei in mice minus control was evaluated at a dose 40 mg/kg; 4 survived out of 10 animals at 60 days postinjection.; format: functional, organism-based; design: dose 40 mg/kg
Mus musculus [31] = test: Mean survival time against trophozoite induced Plasmodium berghei in mice minus control was evaluated at a dose 640 mg/kg; 10 survived out of 10 animals at 60 days postinjection.; format: functional, organism-based; design: dose 640 mg/kg
Mus musculus [32] = test: Mean survival time against trophozoite induced Plasmodium berghei in mice minus control was evaluated at a dose 40 mg/kg; 6 survived out of 15 animals at 60 days postinjection.; format: functional, organism-based; design: dose 40 mg/kg
Mus musculus [33] = test: Mean survival time against trophozoite induced Plasmodium berghei in mice minus control was evaluated at a dose 20 mg/kg; 4 survived out of 10 animals at 60 days postinjection.; format: functional, organism-based; design: dose 20 mg/kg
Mus musculus [34] = test: Mean survival time against trophozoite induced Plasmodium berghei in mice minus control was evaluated at a dose 320 mg/kg; 5 survived out of 10 animals at 60 days postinjection.; format: functional, organism-based; design: dose 320 mg/kg
Mus musculus [35] = test: Mean survival time against trophozoite induced Plasmodium berghei in mice minus control was evaluated at a dose 640 mg/kg.; format: functional
Mus musculus [36] = test: Mean survival time against trophozoite induced Plasmodium berghei in mice minus control was evaluated at a dose 40 mg/kg; format: functional
Mus musculus [37] = test: Mean survival time against trophozoite induced Plasmodium berghei in mice minus control was evaluated at a dose 160 mg/kg; format: functional

SMILES: CC1(C)N=C(N)N=C(N)N1c1ccc(Cl)cc1.Cl [CHLORCYCLOGUANIL HYDROCHLORIDE]
- Delta MST (Mus musculus [1]): Survivals 5
- Delta MST (Mus musculus [2]): 7.9 days
- Delta MST (Mus musculus [3]): Toxic Deaths 5
- Delta MST (Mus musculus [4]): 21.6 days
- Delta MST (Mus musculus [5]): Survivals 2
- Delta MST (Mus musculus [6]): 4.9 days
- Delta MST (Mus musculus [7]): Survivals 3 Toxic Deaths 2
- Delta MST (Mus musculus [8]): 13.4 days

SMILES: CN(Cc1ccc(Cl)c(Cl)c1)c1ccc2nc(N)nc(N)c2c1
- Delta MST (Mus musculus [9]): Survivals 10/10
- Delta MST (Mus musculus [10]): Survivals 5/5
- Delta MST (Mus musculus [11]): Survivals 15/15
- Delta MST (Mus musculus [12]): Survivals 10/10
- Delta MST (Mus musculus [6]): 8.7 days
- Delta MST (Mus musculus [13]): Survivals 10/10
- Delta MST (Mus musculus [14]): Survivals 8/15

SMILES: Nc1nc(N)c2nc(NCc3ccc(Cl)c(Cl)c3)ccc2n1
- Delta MST (Mus musculus [15]): 12.4 days
- Delta MST (Mus musculus [2]): 0.5 days
- Delta MST (Mus musculus [16]): 15.3 days
- Delta MST (Mus musculus [17]): Survivals 7/10
- Delta MST (Mus musculus [18]): 4.9 days
- Delta MST (Mus musculus [19]): 1.8 days

SMILES: CN(Cc1cccc(Cl)c1)c1ccc2nc(N)nc(N)c2n1
- Delta MST (Mus musculus [20]): Survivals 5/5
- Delta MST (Mus musculus [21]): Survivals 5/5
- Delta MST (Mus musculus [10]): Survivals 5/5
- Delta MST (Mus musculus [22]): Survivals 5/5
- Delta MST (Mus musculus [23]): Survivals 5/5
- Delta MST (Mus musculus [24]): Survivals 3/5

SMILES: CN(Cc1ccc(Cl)c(Cl)c1)c1ccc2nc(N)nc(N)c2n1
- Delta MST (Mus musculus [25]): 9.1 days
- Delta MST (Mus musculus [21]): Survivals 5/5
- Delta MST (Mus musculus [22]): Survivals 5/5
- Delta MST (Mus musculus [26]): 2.9 days
- Delta MST (Mus musculus [23]): Survivals 5/5
- Delta MST (Mus musculus [6]): 11.9 days
- Delta MST (Mus musculus [27]): 4.3 days
- Delta MST (Mus musculus [28]): Survivals 10/10
- Delta MST (Mus musculus [29]): Survivals 8/10

SMILES: Nc1nc(N)c2cc(N(C=O)Cc3ccc(Cl)c(Cl)c3)ccc2n1
- Delta MST (Mus musculus [2]): 8.2 days
- Delta MST (Mus musculus [9]): Survivals 10/10
- Delta MST (Mus musculus [10]): Survivals 5/5
- Delta MST (Mus musculus [12]): Survivals 10/10
- Delta MST (Mus musculus [6]): 4.3 days
- Delta MST (Mus musculus [13]): Survivals 10/10
- Delta MST (Mus musculus [30]): Survivals 4/10

SMILES: Nc1nc(N)c2nc(N(C=O)Cc3ccc(Cl)c(Cl)c3)ccc2n1
- Delta MST (Mus musculus [25]): 14.1 days
- Delta MST (Mus musculus [9]): Survivals 10/10
- Delta MST (Mus musculus [31]): Survivals 10/10
- Delta MST (Mus musculus [32]): Survivals 6/15
- Delta MST (Mus musculus [22]): Survivals 5/5
- Delta MST (Mus musculus [26]): 1.9 days
- Delta MST (Mus musculus [33]): Survivals 4/10
- Delta MST (Mus musculus [6]): 16.3 days
- Delta MST (Mus musculus [34]): Survivals 5/10
- Delta MST (Mus musculus [27]): 5.3 days

SMILES: CN(Cc1ccc(Cl)cc1)c1ccc2nc(N)nc(N)c2n1
- Delta MST (Mus musculus [35]): 1.3 days
- Delta MST (Mus musculus [36]): 1.1 days
- Delta MST (Mus musculus [37]): 1.1 days
